The term IC50 denotes the concentration that gives 50% inhibition.

This assay has as its target p45 v-abl tyrosine kinase. The assay can be described thus: Exogenous Substrate Kinase Assay: p45 v-abl kinase inhibition, (Val5)-Angiotensin II phosphorylation. The class given is biochemical, Abelson murine leukemia virus. The conditions noted are these: (Val^5)-Angiotensin II 2 mM, ATP 50 μM, pH 8.0, 30° C., triplicate determinations. The method, then: The enzyme used in our test was the p45 v-abl tyrosine kinase which represents the catalytic domain of the Abelson tyrosine kinase (isolated from the Abelson murine leukemia virus). The p45 v-abl kinase was produced and isolated as described by Wang et al. in J. Biol. Chem. 260, 64 (1985) and by Ferguson et al. in J. Biol. Chem. 260, 3652 (1985) and in Biochem. J. 257, 321 (1989).
(Val^5)-Angiotensin II phosphorylation was performed by incubation with 40 ng of purified abl-kinase and (γ-^32 P)-ATP, in 50 μl of buffer containing Tris-HCl 25 mM, pH 8.0, MgCl2 10 mM and dithiothreitol 0.1 mM (kinase buffer). The reaction mixture was incubated for the indicated time at 30° C. and the reaction stopped by adding 50 μl of 5% trichloroacetic acid.
After a brief incubation on ice, tubes were centrifuged. The supernatants were spotted on phosphocellulose paper squares (Whatman P-81) and washed extensively in acetic acid. The radioactivity bound to dried phosphocellulose squares was measured in a liquid scintillation counter. IC50 values were calculated from triplicate determinations of each experimental point. Each inhibitor was tested at concentrations ranging from […] in the presence of fixed concentrations of peptide (2 mM) and ATP (50 μM).

In the case of `N#CC(=Cc1c[nH]c2ncccc12)C(N)=O` [2-cyano-3-(7-azaindol-3-yl)acrylamide], the half-maximal inhibitory concentration (IC50) turned out to be 4.7 µM. As for `O=C1Nc2ccccc2/C1=C/c1c[nH]c2ncccc12` [3-[(7-azaindol-3-yl)methylen]-2-oxindole, (Z)-3-[(7-azaindol-3-yl)methylen]-2-oxindole], the figure is 0.05 µM.

These data come from patent US5397787A, “Vinylene-azaindole derivatives” (Farmitalia Carlo Erba S.R.L., priority 1992, dated 1995).
